# Reference: patent US20220267374A1, “IMMUNITY INDUCER AND PHARMACEUTICAL COMPOSITION FOR PREVENTING OR TREATING AGING-RELATED DISEASES” (priority 2019, published 2022)
# Ends that are not written are not given here.
# Experiments:
# p19^Arf = assay: Analysis of p19Arf-dependent luciferase activity; type: in vivo, p19^Arf-DTR-Luc mouse; details: HFD-fed p19Arf-DTR-Luc mouse, 21 weeks of age, s.c. vaccination at 13 weeks of age; vs control vaccine; FIG. 2F
# [1] = test system: Gpnmb, Cdkn1a, and Cdkn2a; assay: RNA analysis (qPCR) of adipose tissue; type: in vivo, C57BL/6 mice; details: HFD-fed mice, 16 weeks of age, s.c. vaccination at 8 weeks of age, FIG. 2C
# Description: Total RNA (1 μg) was isolated from adipose tissue samples using RNA-Bee (TEL-TEST Inc.). Real-time PCR (qPCR) was performed using a Light Cycler 480 (Roche) equipped with a universal probe library and a Light Cycler 480 probe master (Roche) according to the manufacturer's instructions. Rplp0 was used as an internal control.
# RNA analysis of Gpnmb, Cdkn1a, and Cdkn2a was performed using the same method as in “4.” of Reference Example 1, except that adipose tissue collected from C57BL/6 mice (16 weeks of age) bred by feeding HFD from 4 weeks of age and administered with peptide vaccine 1 or a control vaccine by subcutaneous injection at a time point of 8 weeks of age was used. In FIG. 2C, “Cont vac” is a C57BL/6 mouse administered with a control vaccine, and “Gpnmb vac” is a C57BL/6 mouse administered with peptide vaccine 1.
# [2] = Metabolic test (glucose tolerance test and insulin tolerance test); type: in vivo, C57BL/6 mice; details: HFD-fed mice, 16 weeks of age, s.c. vaccination at 8 weeks of age; compared to control vaccine; FIG. 2I
# Description: Mice were bred individually from 1 week before the test. On the day of the glucose tolerance test (GTT), mice were fasted for 6 hours, followed by intraperitoneal injection of glucose at a dose of 1 g/kg (body weight) in the early afternoon. For the insulin tolerance test (ITT), mice were intraperitoneally administered with human insulin (1 U/kg (body weight)). After administration of glucose or insulin, tail venous blood was collected 0, 15, 30, 60 and 120 minutes later, and the blood glucose level was measured with a glucose analyzer (Sanwa Chemical Research Institute).
# A metabolic test was performed using the same method as in “5.” of Reference Example 1, except that C57BL/6 mice (16 weeks of age) bred by feeding HFD from 4 weeks of age and administered with peptide vaccine 1, peptide vaccine 2, or control vaccine by subcutaneous injection at a time point of 8 weeks of age were used. In FIG. 2I, “Cont vaccine” is a C57BL/6 mouse administered with a control vaccine, “Gpnmb vaccine 1” is a C57BL/6 mouse administered with peptide vaccine 1, and “Gpnmb vaccine 2” is a C57BL/6 mouse administered with peptide vaccine 2.
# [3] = test system: aging-related acidic β-galactosidase (SA-β-gal); assay: SA-β-gal staining of adipose tissue; type: in vivo, C57BL/6 mice; details: HFD-fed mice, 16 weeks of age, s.c. vaccination at 8 weeks of age, vs control vaccine, FIGS. 2G, 2H
# Description: Aging-related acidic β-galactosidase (SA-β-gal) activity in adipose tissue was tested. Briefly, adipose tissue newly isolated from each Gpnmb-DTR mouse was incubated at 37° C. for 2 hours in a β-gal staining solution (containing 1 mg/ml of 5-bromo-4-chloro-3-indaryl β-D-galactopyranoside (X-gal), 5 mmol/L potassium ferrocyanide, 150 mmol/L of sodium chloride, 2 mmol/L of magnesium chloride, 0.01% of sodium deoxycholate, and 0.02% of nonidet-40). Then, the stained adipose tissue was captured (refer to FIG. 1C). SA-β-gal stainability was quantified by Image-J software (refer to FIG. 1D). […]
# SA-β-gal staining was performed using the same method as in “3.” of Reference Example 1, except that adipose tissue collected from C57BL/6 mice (16 weeks of age) bred by feeding HFD from 4 weeks of age and administered with peptide vaccine 1 or a control vaccine by subcutaneous injection at a time point of 8 weeks of age was used. The SA-β-gal stainability was quantified by Image-J software (refer to FIG. 2H). […]
# Open field test = type: in vivo, C57BL/6 mice; details: normal diet, s.c. vaccination at 50 weeks of age; vs control vaccine; FIG. 2L
# Description: C57BL/6 mice bred by feeding a normal diet and administered with peptide vaccine 1 or a control vaccine by subcutaneous injection at a time point of 50 weeks of age were used. Open field tests were performed before and after vaccination (50 and 70 weeks of age). The open field test is a test that measures voluntary activity in a novel environment. Each mouse was placed in an open field and tested for 6 minutes. The total action time (seconds) and average speed (cm/sec) of each mouse during the test were measured. The difference between the measurement results at 50 weeks of age and the measurement results at 70 weeks of age is shown in FIG. 2L. In FIG. 2L, “Cont vac” is a C57BL/6 mouse administered with the control vaccine, and “Gpnmb vac” is a C57BL/6 mouse administered with the peptide vaccine 1.
sequence,measurement,setting,value
"RRGDGRWKD (also: KLH conjugate; listed as Mus musculus) [peptide vaccine 1, peptide of positions 63 to 71 of mouse GPNMB protein]",p19Arf-dependent luciferase activity in visceral adipose tissue,p19^Arf,decrease
same,expression of Cdkn1a,[1],downregulation
same,expression of Cdkn2a,[1],downregulation
same,metabolic abnormality induced by HFD intake (glucose tolerance test and insulin tolerance test),[2],significantly improved
same,SA-β-gal activity,[3],decrease
same,"results in the open field test (total action time, average speed; difference 50 vs 70 weeks of age)",Open field test,significantly improved
